Experimental data as given in patent US12336982B2 (RODEO THERAPEUTICS CORPORATION, priority 2018, dated 2025).

Target: T1, recombinant 15-PGDH (Homo sapiens, UniProt P15428)
T1 sequence (P15428 1-266): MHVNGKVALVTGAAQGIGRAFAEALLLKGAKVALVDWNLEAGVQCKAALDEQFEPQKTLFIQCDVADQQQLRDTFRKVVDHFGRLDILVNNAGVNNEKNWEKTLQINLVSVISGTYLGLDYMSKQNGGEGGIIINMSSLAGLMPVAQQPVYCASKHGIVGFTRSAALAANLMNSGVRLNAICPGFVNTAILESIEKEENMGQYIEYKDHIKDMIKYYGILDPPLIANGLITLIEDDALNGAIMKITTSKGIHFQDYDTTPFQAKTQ
Type: biochemical
Settings: recombinant human 15-PGDH, in vitro; read-out: PDGH Assay-IC50
Description: The Recombinant 15-PGDH is human unless otherwise specified.

Row | IC50 [nM] | SMILES
1 | < 2.5 | COCCC[S+]([O-])c1sc2nc(-c3cnc4nn(C)cc4c3)cc(C3CCC3)c2c1N (centres unmarked) [Example 260]
2 | < 2.5 | Cn1cc2cc(-c3cc(-c4ccnn4C)c4c(N)c([S+]([O-])C5CCC5)sc4n3)cnc2n1 (centres unmarked) [Example 333]
3 | 2.5 to 10 | COCC[S+]([O-])c1sc2nc(-c3cncnc3)cc(-c3ccnn3C)c2c1N (centres unmarked) [Example 175]
4 | < 2.5 | COCC[S+]([O-])c1sc2nc(-c3cnc4c(c3)nnn4C)cc(-c3ccnn3C)c2c1N (centres unmarked) [Example 324]
5 | < 2.5 | Cn1cc(-c2cc(-c3cccnc3)c3c(N)c([S+]([O-])C4CCC4)sc3n2)ccc1=O (centres unmarked) [Example 89]
6 | < 2.5 | Cc1ncc(-c2cc(-c3ccccc3)c3c(N)c([S+]([O-])C4CCC4)sc3n2)cn1 (centres unmarked) [Example 99]
7 | < 2.5 | Cc1cc(-c2cc(-c3cnc(N)nc3)nc3sc([S+]([O-])C4CCC4)c(N)c23)n(C)n1 (centres unmarked) [Example 355]
8 | < 2.5 | Cc1cn(C)nc1-c1cc(-c2cnc(N)nc2)nc2sc([S+]([O-])C3CCC3)c(N)c12 (centres unmarked) [Example 357]
9 | < 2.5 | Cn1cc2cc(-c3cc(C(F)(F)F)c4c(N)c([S+]([O-])C5CCC5)sc4n3)cnc2n1 (centres unmarked) [Example 421]
10 | < 2.5 | Cn1ccc(-c2cc(-c3ccnnc3)nc3sc([S+]([O-])C4CCC4)c(N)c23)n1 (centres unmarked) [Example 213]
11 | < 2.5 | COCC[S@@+]([O-])c1sc2nc(-c3cnc4nn(C)cc4c3)cc(-c3ccnn3C)c2c1N [Example 335]
12 | < 2.5 | Nc1c([S+]([O-])C2CCC2)sc2nc(-c3cncnc3)cc(-c3ccc(C4COC4)nc3)c12 (centres unmarked) [Example 147]
13 | < 2.5 | Nc1c([S+]([O-])C2CCC2)sc2nc(-c3cncnc3)cc(-c3ccno3)c12 (centres unmarked) [Example 311]
14 | < 2.5 | COCCC[S@@+]([O-])c1sc2nc(-c3cnc4nn(C)cc4c3)cc(C3CCC3)c2c1N [Example 261]
15 | < 2.5 | CNC(=O)c1ncc(-c2cc(-c3ccccc3)c3c(N)c([S+]([O-])C4CCC4)sc3n2)cn1 (centres unmarked) [Example 53]
16 | < 2.5 | Nc1c([S+]([O-])C2CCC2)sc2nc(-c3cncnc3)cc(-c3cnccn3)c12 (centres unmarked) [Example 289]
17 | < 2.5 | Nc1ncc(-c2cc(-c3ncccc3F)c3c(N)c([S+]([O-])C4CCC4)sc3n2)cn1 (centres unmarked) [Example 76]
18 | < 2.5 | Cn1nccc1-c1cc(-c2cnc3nccn3c2)nc2sc([S+]([O-])C3CCC3)c(N)c12 (centres unmarked) [Example 320]
19 | 2.5 to 10 | Nc1c([S+]([O-])C2CCC2)sc2nc(-c3cnc4nn(CCO)cc4c3)cc(C3CCC3)c12 (centres unmarked) [Example 348]
20 | < 2.5 | CNc1ncc(-c2cc(-c3ccnn3C)c3c(N)c([S@+]([O-])CCOC)sc3n2)cn1 [Example 331]
21 | ≥ 10 | COCC[S@+]([O-])c1sc2nc(-c3cnc4nn(C)cc4c3)cc(-c3ccnn3C)c2c1N [Example 336]
22 | < 2.5 | Nc1c([S@@+]([O-])C2CCC2)sc2nc(-c3ccc(NCCO)nc3)cc(-c3ccccn3)c12 [Example 96]
23 | ≥ 10 | Cn1nccc1-c1cc(-c2cnc(O)nc2)nc2sc([S@@+]([O-])C3CCC3)c(N)c12 [Example 225]

Second part, the compound before the results:

Row | SMILES | IC50 [nM]
24 | COCC[S+]([O-])c1sc2nc(-c3cncnc3)cc(C)c2c1N (centres unmarked) [Example 173] | < 2.5
25 | COCC[S@@+]([O-])c1sc2nc(-c3cnc(NCCO)nc3)cc(C3CCC3)c2c1N [Example 349] | < 2.5
26 | COCC[S@+]([O-])c1sc2nc(-c3cncnc3)cc(-c3ccccc3)c2c1N [Example 86] | ≥ 10
27 | Nc1c([S+]([O-])C2CCC2)sc2nc(-c3cnc(N4CCOCC4)nc3)cc(-c3ccccc3)c12 (centres unmarked) [Example 194] | 2.5 to 10
28 | COCCC[S@@+]([O-])c1sc2nc(-c3cncnc3)cc(C3CC3)c2c1N [Example 153] | < 2.5
29 | COCC[S@+]([O-])c1sc2nc(-c3cnc4ncn(C)c4c3)cc(C3CCC3)c2c1N [Example 367] | ≥ 10
30 | COCCC[S@@+]([O-])c1sc2nc(-c3cnc(N)nc3)cc(C(F)(F)F)c2c1N [Example 203] | < 2.5
31 | COCC[S+]([O-])c1sc2nc(-c3cnc(N)nc3)cc(-c3cnn(C)c3)c2c1N (centres unmarked) [Example 196] | < 2.5
32 | COCCC[S+]([O-])c1sc2nc(-c3ccc(=O)n(C)c3)cc(-c3ccccc3)c2c1N (centres unmarked) [Example 161] | < 2.5
33 | COCCC[S+]([O-])c1sc2nc(-c3cnc(N4CCOCC4)nc3)cc(C(F)(F)F)c2c1N (centres unmarked) [Example 425] | 2.5 to 10
34 | COCCC[S+]([O-])c1sc2nc(-c3cnc(N4CC(O)C4)nc3)cc(-c3ccccc3)c2c1N (centres unmarked) [Example 290] | 2.5 to 10
35 | COCC[S@@+]([O-])c1sc2nc(-c3cnc(N)nc3)cc(C3CCC3)c2c1N [Example 346] | < 2.5
36 | COCCC[S+]([O-])c1sc2nc(-c3ccc(NCCO)nc3)cc(-c3ccc(F)cc3)c2c1N (centres unmarked) [Example 70] | 2.5 to 10
37 | COCC[S+]([O-])c1sc2nc(-c3cccnc3)cc(C(F)(F)F)c2c1N (centres unmarked) [Example 57] | < 2.5
38 | Cn1ncc(-c2cc(C3CCC3)c3c(N)c([S+]([O-])C4CCC4)sc3n2)cc1=O (centres unmarked) [Example 398] | < 2.5
39 | COCCC[S+]([O-])c1sc2nc(-c3cncnc3)cc(-c3cccnn3)c2c1N (centres unmarked) [Example 236] | < 2.5
40 | COCC[S+]([O-])c1sc2nc(-c3cccnc3)nc(C3CC3)c2c1N (centres unmarked) [Example 190] | < 2.5
41 | Nc1c([S+]([O-])C2CCC2)sc2nc(-c3cncnc3)cc(-c3ccc(C4COC4)cc3)c12 (centres unmarked) [Example 114] | < 2.5
42 | Nc1c([S+]([O-])C2CCC2)sc2nc(-c3cccnc3)nc(C3CC3)c12 (centres unmarked) [Example 189] | < 2.5
43 | CNc1ncc(-c2cc(-c3ccn(C)n3)c3c(N)c([S+]([O-])CCOC)sc3n2)cn1 (centres unmarked) [Example 339] | < 2.5

Row | SMILES | IC50 [nM]
44 | COCCC[S@@+]([O-])c1sc2nc(-c3cncnc3)cc(-c3cnccn3)c2c1N [Example 234] | ≥ 10
45 | COCC[S+]([O-])c1sc2nc(-c3cn[nH]c(=O)c3)cc(-c3ccccc3)c2c1N (centres unmarked) [Example 394] | < 2.5
46 | COCCC[S+]([O-])c1sc2nc(-c3cnn(CCO)c3)cc(-c3ccccc3)c2c1N (centres unmarked) [Example 274] | < 2.5
47 | Nc1c([S+]([O-])C2CCC2)sc2nc(-c3cnc(NCCO)nc3)cc(-c3ccc(Cl)cc3)c12 (centres unmarked) [Example 159] | < 2.5
48 | COCCC[S@+]([O-])c1sc2nc(-c3cncnc3)cc(-c3ccncn3)c2c1N [Example 239] | ≥ 10
49 | COCCC[S+]([O-])c1sc2nc(-c3cnc4nn(CCO)cc4c3)cc(C3CCC3)c2c1N (centres unmarked) [Example 270] | < 2.5
50 | COCC[S@+]([O-])c1sc2nc(-c3cnc(N)nc3)cc(C3CC3)c2c1N [Example 151] | ≥ 10
51 | COCC[S@+]([O-])c1sc2nc(-c3cncnc3)cc(C3CC3)c2c1N [Example 149] | ≥ 10
52 | Nc1c([S+]([O-])C2CCC2)sc2nc(-c3cnc(NCCO)nc3)cc(C(F)(F)F)c12 (centres unmarked) [Example 138] | 2.5 to 10
53 | CN(C)CCOc1ccc(-c2cc(-c3ccccc3)c3c(N)c([S+]([O-])C4CCC4)sc3n2)cn1 (centres unmarked) [Example 60] | 2.5 to 10
54 | COCC[S@+]([O-])c1sc2nc(-c3cnc4nn(C)cc4c3)cc(C(F)(F)F)c2c1N [Example 419] | ≥ 10
55 | COCC[S+]([O-])c1sc2nc(-c3cnc(N4CC(O)C4)nc3)cc(-c3ccccc3)c2c1N (centres unmarked) [Example 300] | 2.5 to 10
56 | COCC[S@@+]([O-])c1sc2nc(-c3cncnc3)cc(C(F)(F)F)c2c1N [Example 198] | < 2.5
57 | COCC[S+]([O-])c1sc2nc(-c3cnn(C)c3)cc(C(F)(F)F)c2c1N (centres unmarked) [Example 426] | < 2.5
58 | COCC[S+]([O-])c1sc2nc(-c3cnc4ncn(C)c4c3)cc(-c3ccccc3)c2c1N (centres unmarked) [Example 361] | < 2.5
59 | COCC[S@+]([O-])c1sc2nc(-c3cncnc3)cc(-c3ncccn3)c2c1N [Example 231] | ≥ 10
60 | Cn1cc(-c2cc(C(F)(F)F)c3c(N)c([S+]([O-])C4CCC4)sc3n2)cn1 (centres unmarked) [Example 428] | < 2.5
61 | COCCC[S@@+]([O-])c1sc2nc(-c3cncnc3)cc(-c3ncccn3)c2c1N [Example 111] | < 2.5
62 | CC(C)(C)[S+]([O-])c1sc2nc(-c3cnc(NCCO)nc3)cc(C3CCC3)c2c1N (centres unmarked) [Example 353] | 2.5 to 10
